Results: ChEMBL document CHEMBL5143616, “Novel biphenyl-based scaffold as potent and selective histone deacetylase 6 (HDAC6) inhibitors: Identification, development and pharmacological evaluation” (Eur J Med Chem, 2022)
Values belong to the compound of their own block, whether it stands above or below them. The source made the active and inactive calls. No cut-off for these calls is given here.

What was measured:
[1] = target: T1, Protein deacetylase HDAC6 (Mus musculus) (UniProt Q9Z2V5); experiment: Inhibition of HDAC6 in mouse B16 cells assessed as accumulation of acetylated alpha-tubulin level after 24 hrs by Western blotting analysis; type: cell-based
T1 sequence (whole entry): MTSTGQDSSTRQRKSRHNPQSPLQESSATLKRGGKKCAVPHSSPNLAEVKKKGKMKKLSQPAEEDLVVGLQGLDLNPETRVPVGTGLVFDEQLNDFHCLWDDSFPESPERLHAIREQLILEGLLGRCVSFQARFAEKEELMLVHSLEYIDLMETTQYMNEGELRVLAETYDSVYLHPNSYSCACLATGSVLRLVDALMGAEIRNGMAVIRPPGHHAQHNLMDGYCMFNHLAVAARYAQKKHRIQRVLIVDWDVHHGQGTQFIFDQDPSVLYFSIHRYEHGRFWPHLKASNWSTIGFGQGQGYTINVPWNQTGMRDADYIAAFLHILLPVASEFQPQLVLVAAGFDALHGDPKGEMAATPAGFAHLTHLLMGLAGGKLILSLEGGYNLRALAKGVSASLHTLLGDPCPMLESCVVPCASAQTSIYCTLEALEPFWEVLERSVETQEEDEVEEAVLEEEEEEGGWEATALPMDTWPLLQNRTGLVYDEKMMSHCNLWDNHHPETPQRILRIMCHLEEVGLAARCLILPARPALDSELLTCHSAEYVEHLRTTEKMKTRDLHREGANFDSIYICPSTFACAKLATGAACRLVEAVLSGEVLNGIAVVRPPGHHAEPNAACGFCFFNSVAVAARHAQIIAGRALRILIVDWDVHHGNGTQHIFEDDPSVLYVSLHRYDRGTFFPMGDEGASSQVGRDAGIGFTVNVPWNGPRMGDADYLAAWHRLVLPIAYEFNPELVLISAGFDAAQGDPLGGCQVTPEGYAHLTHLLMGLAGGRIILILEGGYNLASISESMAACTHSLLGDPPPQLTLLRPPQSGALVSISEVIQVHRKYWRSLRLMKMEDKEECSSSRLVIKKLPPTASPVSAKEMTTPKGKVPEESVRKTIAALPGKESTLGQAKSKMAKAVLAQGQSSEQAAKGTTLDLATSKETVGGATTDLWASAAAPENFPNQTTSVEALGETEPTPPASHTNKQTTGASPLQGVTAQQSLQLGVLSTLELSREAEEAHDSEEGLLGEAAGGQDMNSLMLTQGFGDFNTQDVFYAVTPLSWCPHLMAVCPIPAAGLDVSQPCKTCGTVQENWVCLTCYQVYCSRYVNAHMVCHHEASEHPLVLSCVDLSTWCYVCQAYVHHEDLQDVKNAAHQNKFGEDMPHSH

B16 = experiment: Antiproliferative activity against mouse B16 cells after 72 hrs by MTT assay; type: functional, cell-based; details: B16, 72 h
[2] = Stability in mouse plasma incubated for 6 hrs in presence of NADPH and measured by LC-MS/MS analysis; type: ADME, cell-free; details: read-out: Stability
[3] = Stability in human liver microsomes assessed as half-life and measured by LC-MS/MS analysis; type: ADME, Microsome
CT26 [4] = experiment: Antitumor immunity in C57BL/6 mouse xenografted with mouse CT26 cells assessed as decrease in number of CD8+IFNgamma+ T cells at 100 mg/kg, po administered once daily for 21 days measured by flow cytometry analysis; type: functional; set-up: scale not given: the % may be the effect or the level left; details: time 21 day
CT26 [5] = experiment: Antitumor immunity in C57BL/6 mouse xenografted with mouse CT26 cells assessed as increase in CD3+ CD8+ cytotoxic T cells at 100 mg/kg, po administered once daily for 21 days measured by flow cytometry analysis; type: functional; details: time 21 day
CT26 [6] = experiment: Antitumor immunity in C57BL/6 mouse xenografted with mouse CT26 cells assessed as increase in CD3+ cytotoxic T cells at 50 mg/kg, po administered once daily for 21 days measured by flow cytometry analysis; type: functional; details: time 21 day
[7] = Stability in human liver microsomes assessed as clearance and measured by LC-MS/MS analysis; type: ADME, Microsome; details: read-out: CLH
[8] = Stability in mouse liver microsomes assessed as clearance and measured by LC-MS/MS analysis; type: ADME, Microsome; details: read-out: CLH
[9] = Stability in human plasma incubated for 6 hrs in presence of NADPH and measured by LC-MS/MS analysis; type: ADME, cell-free; details: read-out: Stability
CT26 [10] = experiment: Antitumor immunity in C57BL/6 mouse xenografted with mouse CT26 cells assessed as decrease in number of CD4+CD25+ CD127- T regulatory cells at 100 mg/kg, po administered once daily for 21 days measured by flow cytometry analysis; type: functional; set-up: scale not given: the % may be the effect or the level left; details: time 21 day
CT26 [11] = experiment: Induction of apoptosis in mouse CT26 cells assessed as apoptotic cells at 6 uM measured by Annexin V-FITC/PI staining based flow cytometry method; type: functional
[12] = Stability in mouse liver microsomes assessed as half-life and measured by LC-MS/MS analysis; type: ADME, Microsome
[13] = target: T1, Protein deacetylase HDAC6 (Mus musculus); experiment: Inhibition of HDAC6 in mouse CT26 cells assessed as accumulation of acetylated alpha-tubulin level at 2 to 6 uM after 24 hrs by Western blotting analysis; type: cell-based; details: dose 2-6 µM, DDE = dose-dependent effect
Histone deacetylase 3 = Histone deacetylase 3 (Homo sapiens, UniProt O15379); experiment: Inhibition of HDAC3 (unknown origin)
[14] = target: T1, Protein deacetylase HDAC6 (Mus musculus); experiment: Inhibition of HDAC6 in mouse B16 cells assessed as accumulation of acetylated alpha-tubulin level at 6 uM after 2 to 12 hrs by Western blotting analysis; type: cell-based; details: time 2-12 hrs, TDE = time-dependent effect
[15] = target: T1, Protein deacetylase HDAC6 (Mus musculus); experiment: Inhibition of HDAC6 in mouse B16 cells assessed as accumulation of acetylated alpha-tubulin level at 2 to 6 uM after 24 hrs by Western blotting analysis; type: cell-based; details: dose 2-6 µM, DDE = dose-dependent effect
Histone deacetylase 2 = Histone deacetylase 2 (Homo sapiens, UniProt Q92769)
Description: Inhibition of HDAC2 (unknown origin) using Boc-Lys-(acetyl)-AMC as substrate incubated for 0.5 hr and measured after 20 mins by fluorescence assay

Histone deacetylase 8 = target: T2, Histone deacetylase 8 (Homo sapiens, UniProt Q9BY41); experiment: Inhibition of HDAC8 (unknown origin) using Boc-Lys-(triflouroacetyl)-AMC as substrate incubated for 0.5 hr and measured after 20 mins by fluorescence assay
T2 sequence (Q9BY41 whole entry): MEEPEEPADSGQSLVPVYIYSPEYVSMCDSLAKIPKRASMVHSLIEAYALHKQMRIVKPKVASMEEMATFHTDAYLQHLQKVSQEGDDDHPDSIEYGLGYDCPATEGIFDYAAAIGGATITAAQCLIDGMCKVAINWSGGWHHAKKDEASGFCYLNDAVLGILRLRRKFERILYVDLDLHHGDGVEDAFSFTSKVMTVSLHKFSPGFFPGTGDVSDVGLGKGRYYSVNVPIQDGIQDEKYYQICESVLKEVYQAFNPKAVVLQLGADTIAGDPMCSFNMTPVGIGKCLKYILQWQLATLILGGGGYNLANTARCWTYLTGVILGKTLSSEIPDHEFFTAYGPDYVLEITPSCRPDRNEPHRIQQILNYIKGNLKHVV

[16] = target: T1, Protein deacetylase HDAC6 (Mus musculus); experiment: Inhibition of HDAC6 in mouse CT26 cells assessed as accumulation of acetylated alpha-tubulin level at 6 uM after 2 to 24 hrs by Western blotting analysis; type: cell-based; details: time 2-24 hrs, TDE = time-dependent effect

Chain of Histone deacetylase 3 (O15379 whole entry): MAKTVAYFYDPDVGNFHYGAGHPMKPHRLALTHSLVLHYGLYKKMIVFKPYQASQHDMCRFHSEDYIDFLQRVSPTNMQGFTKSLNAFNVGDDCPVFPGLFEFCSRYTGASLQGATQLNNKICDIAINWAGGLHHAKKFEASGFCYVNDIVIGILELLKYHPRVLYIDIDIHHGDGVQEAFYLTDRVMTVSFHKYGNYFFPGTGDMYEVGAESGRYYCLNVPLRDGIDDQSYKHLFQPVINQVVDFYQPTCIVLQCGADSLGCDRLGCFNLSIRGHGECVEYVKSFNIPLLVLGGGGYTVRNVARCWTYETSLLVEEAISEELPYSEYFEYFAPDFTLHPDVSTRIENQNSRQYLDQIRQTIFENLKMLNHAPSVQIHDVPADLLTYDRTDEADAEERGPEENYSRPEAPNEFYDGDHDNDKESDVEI
Chain of Histone deacetylase 2 (Q92769 whole entry): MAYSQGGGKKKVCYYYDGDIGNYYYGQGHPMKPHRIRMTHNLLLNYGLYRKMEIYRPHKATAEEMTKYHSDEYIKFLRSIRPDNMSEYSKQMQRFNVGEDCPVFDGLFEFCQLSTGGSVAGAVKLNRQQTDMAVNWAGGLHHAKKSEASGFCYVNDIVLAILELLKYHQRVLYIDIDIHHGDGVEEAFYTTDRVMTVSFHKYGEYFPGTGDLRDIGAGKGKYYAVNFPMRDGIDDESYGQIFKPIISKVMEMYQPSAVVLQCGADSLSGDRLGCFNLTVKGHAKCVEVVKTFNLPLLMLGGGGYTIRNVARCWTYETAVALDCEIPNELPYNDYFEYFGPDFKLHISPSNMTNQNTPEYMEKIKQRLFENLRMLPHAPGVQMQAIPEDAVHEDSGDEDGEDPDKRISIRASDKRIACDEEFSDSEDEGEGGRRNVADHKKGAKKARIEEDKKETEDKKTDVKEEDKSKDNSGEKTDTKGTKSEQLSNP

SMILES: COc1cc(OCc2cccc(-c3ccccc3)c2C)cc(OC)c1CNCCCCCC(=O)NO
acetylated alpha-tubulin accumulation [1]: Active

SMILES: O=C(CCCCCCC(=O)Nc1ccccc1)NO [VORINOSTAT]
IC50 (B16): 2260 nM
remaining at 6 h [2]: 20%
half-life [3]: 4.32 h
Activity (CT26 [4]): 21.12%
Activity (CT26 [5]): 32.56%
Activity (CT26 [6]): 57.83%
microsomal CLint [7]: 4.02 µL/min/mg
microsomal CLint [8]: 2.04 µL/min/mg
remaining at 6 h [9]: 77%
Activity (CT26 [10]): 27.99%
Activity (CT26 [11]): 26%
t1/2 ([12]; microsomes): 11.6 h

Second part, the compound after the results:

acetylated alpha-tubulin accumulation [1]: Active
SMILES: COc1cc(OCc2cccc(-c3ccc4c(c3)OCCO4)c2C)cc(OC)c1CNCCCCCC(=O)NO

acetylated alpha-tubulin accumulation [1]: Active
SMILES: Cc1c(COc2ccc(CNCCCCCCC(=O)NO)c(OCc3cccc(C#N)c3)c2)cccc1-c1ccccc1

inhibition [13]: Dde
IC50 (Histone deacetylase 3): 46 nM
inhibition [14]: Tde
remaining at 6 h [2]: 23%
half-life [3]: 1.7 h
inhibition [15]: Dde
acetylated alpha-tubulin accumulation [1]: Active
microsomal CLint [7]: 34.1 µL/min/mg
IC50 (Histone deacetylase 2): 172 nM
microsomal CLint [8]: 20.4 µL/min/mg
remaining at 6 h [9]: 97%
IC50 (Histone deacetylase 8): 2180 nM
inhibition [16]: Tde
half-life ([12]; liver microsomes): 1.13 h
SMILES: COc1cc(OCc2cccc(-c3ccccc3)c2C)cc(OC)c1CNCCCCCCC(=O)NO
